Laboratory results as given in patent US8921376B2, “Pyrrolopyridines useful as inhibitors of protein kinase” (Vertex Pharmaceuticals Incorporated, priority 2005, dated 2014).

Key:
Format in all cases: biochemical
JAK2 = JAK2 (Homo sapiens, UniProt O60674); experiment: JAK2 inhibition assay (as Example 3 with JAK-2 enzyme)
Outline: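 Radiometric JAK2 kinase assay: poly(Glu)4Tyr substrate at final 15 μM, ATP at final 12 μM with [33P]; buffer 100 mM HEPES pH 7.4, 1 mM DTT, 10 mM MgCl2, 25 mM NaCl, 0.01% BSA. 20 min at 25 °C, TCA-stopped, 33P incorporation counted after filter capture.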

JAK3 = molecular target: T1, JAK3 (Homo sapiens, UniProt P52333); experiment: JAK3 inhibition assay (33P incorporation into poly(Glu)4Tyr)
T1 sequence (P52333 1-1124): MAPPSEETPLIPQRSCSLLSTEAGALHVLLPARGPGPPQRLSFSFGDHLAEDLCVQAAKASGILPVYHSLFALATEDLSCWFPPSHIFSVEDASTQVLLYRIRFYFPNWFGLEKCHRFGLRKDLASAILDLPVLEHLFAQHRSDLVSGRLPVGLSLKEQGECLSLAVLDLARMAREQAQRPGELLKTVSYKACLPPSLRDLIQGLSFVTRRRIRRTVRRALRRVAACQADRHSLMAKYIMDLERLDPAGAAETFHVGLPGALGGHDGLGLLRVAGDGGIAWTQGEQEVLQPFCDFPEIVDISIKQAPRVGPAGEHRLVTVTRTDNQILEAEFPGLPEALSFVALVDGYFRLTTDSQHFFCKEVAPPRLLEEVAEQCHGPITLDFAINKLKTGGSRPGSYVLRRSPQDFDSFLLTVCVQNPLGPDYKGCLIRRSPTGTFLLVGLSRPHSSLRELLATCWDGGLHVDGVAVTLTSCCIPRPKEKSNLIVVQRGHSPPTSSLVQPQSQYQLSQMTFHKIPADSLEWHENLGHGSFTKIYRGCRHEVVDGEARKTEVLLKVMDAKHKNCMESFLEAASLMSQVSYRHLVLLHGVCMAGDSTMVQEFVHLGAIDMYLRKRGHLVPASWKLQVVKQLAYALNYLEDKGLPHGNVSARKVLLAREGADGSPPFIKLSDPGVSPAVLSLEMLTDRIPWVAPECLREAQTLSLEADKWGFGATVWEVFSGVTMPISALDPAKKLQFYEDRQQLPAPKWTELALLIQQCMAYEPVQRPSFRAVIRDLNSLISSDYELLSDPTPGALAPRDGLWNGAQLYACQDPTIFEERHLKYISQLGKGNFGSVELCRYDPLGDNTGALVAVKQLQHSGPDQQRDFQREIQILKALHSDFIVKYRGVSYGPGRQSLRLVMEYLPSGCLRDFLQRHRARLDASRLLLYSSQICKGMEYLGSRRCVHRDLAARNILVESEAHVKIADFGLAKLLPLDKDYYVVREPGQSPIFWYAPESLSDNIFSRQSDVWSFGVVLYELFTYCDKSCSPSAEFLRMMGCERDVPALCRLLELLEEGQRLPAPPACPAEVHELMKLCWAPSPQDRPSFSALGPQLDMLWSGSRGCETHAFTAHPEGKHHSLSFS
Outline: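 Human JAK3 at 1 nM phosphorylated 1 μM poly(Glu)4Tyr using 5 μM [33P]ATP in HEPES pH 7.4 buffer with MgCl2, DTT and BSA. Reactions ran 20 min at 25° C. and were stopped with TCA. 33P incorporation was measured by scintillation after glass-fiber filter capture.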

ROCK I = ROCK I (Homo sapiens, UniProt Q13464); experiment: ROCK-I inhibition assay (radioactive enzyme assay, MBP substrate)
ROCK I, sequence (Q13464 whole entry): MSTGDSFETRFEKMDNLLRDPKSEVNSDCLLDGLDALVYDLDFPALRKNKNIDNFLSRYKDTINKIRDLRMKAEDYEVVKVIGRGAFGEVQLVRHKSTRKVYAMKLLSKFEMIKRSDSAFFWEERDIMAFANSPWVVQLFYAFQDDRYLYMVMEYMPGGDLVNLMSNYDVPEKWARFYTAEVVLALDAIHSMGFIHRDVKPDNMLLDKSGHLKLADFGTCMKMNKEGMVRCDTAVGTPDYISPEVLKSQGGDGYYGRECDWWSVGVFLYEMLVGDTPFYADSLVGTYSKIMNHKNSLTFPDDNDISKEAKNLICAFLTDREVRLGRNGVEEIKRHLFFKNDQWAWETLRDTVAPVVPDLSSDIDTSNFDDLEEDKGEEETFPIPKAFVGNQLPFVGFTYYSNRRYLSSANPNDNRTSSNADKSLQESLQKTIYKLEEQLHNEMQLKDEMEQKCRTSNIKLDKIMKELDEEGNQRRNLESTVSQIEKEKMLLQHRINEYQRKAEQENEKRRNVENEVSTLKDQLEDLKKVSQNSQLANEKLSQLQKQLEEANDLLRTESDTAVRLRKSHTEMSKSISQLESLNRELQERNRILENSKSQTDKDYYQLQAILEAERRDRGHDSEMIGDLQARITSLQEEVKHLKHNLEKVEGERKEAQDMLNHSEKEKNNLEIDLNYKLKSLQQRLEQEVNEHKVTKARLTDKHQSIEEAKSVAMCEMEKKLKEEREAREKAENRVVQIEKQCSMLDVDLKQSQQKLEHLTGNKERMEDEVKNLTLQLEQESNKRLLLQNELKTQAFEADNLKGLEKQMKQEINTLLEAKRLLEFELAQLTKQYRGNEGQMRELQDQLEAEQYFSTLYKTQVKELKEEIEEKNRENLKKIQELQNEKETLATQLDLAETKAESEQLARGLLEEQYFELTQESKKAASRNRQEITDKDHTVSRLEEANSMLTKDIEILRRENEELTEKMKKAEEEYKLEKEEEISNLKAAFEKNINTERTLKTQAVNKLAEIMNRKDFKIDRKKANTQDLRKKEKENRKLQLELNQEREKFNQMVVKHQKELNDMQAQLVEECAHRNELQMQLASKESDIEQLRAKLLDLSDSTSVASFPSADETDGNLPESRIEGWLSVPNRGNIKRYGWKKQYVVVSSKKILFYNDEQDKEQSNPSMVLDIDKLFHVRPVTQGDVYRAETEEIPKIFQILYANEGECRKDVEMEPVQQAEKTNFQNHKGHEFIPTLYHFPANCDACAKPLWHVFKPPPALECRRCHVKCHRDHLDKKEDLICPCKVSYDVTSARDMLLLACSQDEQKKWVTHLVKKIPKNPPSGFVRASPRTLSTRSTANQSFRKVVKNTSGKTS
Outline: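 Human ROCK at 5 nM phosphorylated 27 μM myelin basic protein with 13 μM [γ-33P]ATP (final) in HEPES pH 7.5, MgCl2, NaCl, DTT and 1.5% DMSO. Reactions ran 2 h at room temperature before TCA quench and filter-plate scintillation counting. After background subtraction, data were fit to give Ki(app).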

[1] = enzyme inhibition, Ki(app), Table 5
[2] = Table 6, enzyme inhibition data (Ki)

JAK2, sequence (O60674 whole entry): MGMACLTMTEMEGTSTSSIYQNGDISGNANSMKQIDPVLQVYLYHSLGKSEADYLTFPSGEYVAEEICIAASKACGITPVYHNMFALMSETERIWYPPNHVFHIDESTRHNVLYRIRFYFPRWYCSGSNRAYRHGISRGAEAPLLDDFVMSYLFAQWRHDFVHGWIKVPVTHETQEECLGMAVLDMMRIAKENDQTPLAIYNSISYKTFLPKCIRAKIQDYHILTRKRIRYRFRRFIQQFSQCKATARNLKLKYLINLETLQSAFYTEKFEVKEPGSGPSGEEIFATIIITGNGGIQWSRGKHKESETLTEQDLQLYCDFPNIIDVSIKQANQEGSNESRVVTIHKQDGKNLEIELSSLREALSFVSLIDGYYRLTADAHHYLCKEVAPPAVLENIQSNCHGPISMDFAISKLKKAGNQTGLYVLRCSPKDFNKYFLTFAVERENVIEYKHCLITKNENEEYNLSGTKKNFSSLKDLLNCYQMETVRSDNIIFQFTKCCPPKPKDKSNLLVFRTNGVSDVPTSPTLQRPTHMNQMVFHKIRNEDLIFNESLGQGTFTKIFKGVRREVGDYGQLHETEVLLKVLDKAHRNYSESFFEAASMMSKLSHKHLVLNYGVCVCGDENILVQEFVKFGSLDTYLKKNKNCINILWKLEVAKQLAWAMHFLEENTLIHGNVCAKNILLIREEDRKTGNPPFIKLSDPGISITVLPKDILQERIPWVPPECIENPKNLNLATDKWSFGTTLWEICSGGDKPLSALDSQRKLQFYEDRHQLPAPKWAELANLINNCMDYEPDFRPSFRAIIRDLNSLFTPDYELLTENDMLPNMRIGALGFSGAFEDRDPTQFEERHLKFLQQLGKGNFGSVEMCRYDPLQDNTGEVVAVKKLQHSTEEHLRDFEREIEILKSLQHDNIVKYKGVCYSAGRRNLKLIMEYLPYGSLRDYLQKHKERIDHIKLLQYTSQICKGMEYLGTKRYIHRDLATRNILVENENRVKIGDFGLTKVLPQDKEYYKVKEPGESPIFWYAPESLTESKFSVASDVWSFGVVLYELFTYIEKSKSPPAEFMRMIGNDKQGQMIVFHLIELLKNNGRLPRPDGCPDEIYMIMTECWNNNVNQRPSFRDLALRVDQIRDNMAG

| Ki (JAK2; enzyme inhibition, Table 5) [µM] | Ki (JAK3; enzyme inhibition, Table 5) [µM] | Ki (ROCK I; [1]) [µM] | Ki (JAK2; [2]) [µM] | Ki (JAK3; [2]) [µM] | Ki (ROCK I; [2]) [µM] | Structure (SMILES) |
| --- | --- | --- | --- | --- | --- | --- |
| < 0.5 | < 0.5 | < 0.5 | – | – | – | Clc1cnc2[nH]ccc2c1NC1CCCC1 [compound 127, 5-chloro-N-cyclopentyl-1H-pyrrolo[2,3-b]pyridin-4-amine] |
| > 5 | > 5 | 0.5 to 5 | – | – | – | CC(=O)Nc1ccccc1-c1c(Cl)cnc2[nH]ccc12 [compound 128] |
| > 5 | > 5 | 0.5 to 5 | – | – | – | Nc1ccccc1-c1c(Cl)cnc2[nH]ccc12 [compound 129] |
| 0.5 to 5 | 0.5 to 5 | 0.5 to 5 | – | – | – | C[C@H](Nc1ccnc(-c2ccnc3[nH]ccc23)n1)C(=O)NC1CC1 [compound 130] |
| 0.5 to 5 | < 0.5 | 0.5 to 5 | – | – | – | CC(C)(Nc1nc(-c2ccnc3[nH]ccc23)ncc1F)C(=O)NCC(F)(F)F [compound 131] |
| > 5 | 0.5 to 5 | 0.5 to 5 | – | – | – | CC(C)(Nc1nc(-c2ccnc3[nH]ccc23)nc2ccccc12)C(=O)NCC(F)(F)F [compound 132] |
| < 0.5 | 0.5 to 5 | < 0.5 | – | – | – | c1cc(-c2ccoc2)c2cc[nH]c2n1 [compound 133, 4-Furan-3-yl-1H-pyrrolo[2,3-b]pyridine] |
| > 5 | 0.5 to 5 | 0.5 to 5 | – | – | – | C[C@H](Nc1nc(-c2ccnc3[nH]ccc23)nc2ccccc12)C(=O)NCC(F)(F)F [compound 134] |
| – | – | – | < 0.5 | < 0.5 | < 0.5 | Clc1cnc2[nH]ccc2c1-c1cccs1 [compound 135] |
| – | – | – | < 0.5 | < 0.5 | < 0.5 | Clc1cnc2[nH]ccc2c1-c1ccco1 [compound 136] |
| – | – | – | < 0.5 | < 0.5 | > 4 | Clc1cnc2[nH]ccc2c1-c1cc2ccccc2s1 [compound 137] |
| – | – | – | < 0.5 | < 0.5 | > 4 | Clc1cnc2[nH]ccc2c1-c1cc2ccccc2o1 [compound 138] |
| – | – | – | < 0.5 | < 0.5 | 0.5 to 5 | Clc1cnc2[nH]ccc2c1-c1ccoc1 [compound 139] |
| – | – | – | < 0.5 | < 0.5 | 0.5 to 5 | Cc1ccc(-c2c(Cl)cnc3[nH]ccc23)s1 [compound 140] |
| – | – | – | < 0.5 | < 0.5 | > 4 | Clc1ccc(-c2c(Cl)cnc3[nH]ccc23)s1 [compound 141] |
| – | – | – | < 0.5 | < 0.5 | 0.5 to 5 | Clc1cnc2[nH]ccc2c1-c1csc2ccccc12 [compound 142] |
| – | – | – | 0.5 to 5 | > 5 | > 4 | CC(C)(C)OC(=O)n1cccc1-c1c(Cl)cnc2[nH]ccc12 [compound 143] |
| – | – | – | < 0.5 | < 0.5 | 0.5 to 5 | Cc1csc(-c2c(Cl)cnc3[nH]ccc23)c1 [compound 144] |
| – | – | – | < 0.5 | < 0.5 | > 4 | CC(=O)c1ccc(-c2c(Cl)cnc3[nH]ccc23)s1 [compound 145] |
| – | – | – | > 5 | > 5 | > 4 | Cc1noc(C)c1-c1c(Cl)cnc2[nH]ccc12 [compound 146] |
| – | – | – | > 5 | > 5 | > 4 | CC(C)(C)OC(=O)n1c(-c2c(Cl)cnc3[nH]ccc23)cc2ccccc21 [compound 147] |
| – | – | – | 0.5 to 5 | 0.5 to 5 | > 4 | O=S(=O)(c1ccccc1)n1cc(-c2c(Cl)cnc3[nH]ccc23)c2ccccc21 [compound 148] |
| – | – | – | < 0.5 | < 0.5 | < 0.5 | Clc1cnc2[nH]ccc2c1NC1CCCCCC1 [compound 149] |
| – | – | – | < 0.5 | < 0.5 | < 0.5 | Clc1cnc2[nH]ccc2c1N[C@@H]1C[C@H]2CC[C@@H]1C2 [compound 150] |

| Ki (JAK2; enzyme inhibition, Table 5) [µM] | Ki (JAK3; enzyme inhibition, Table 5) [µM] | Ki (ROCK I; [1]) [µM] | Ki (JAK2; [2]) [µM] | Ki (JAK3; [2]) [µM] | Ki (ROCK I; [2]) [µM] | Structure (SMILES) |
| --- | --- | --- | --- | --- | --- | --- |
| – | – | – | 0.5 to 5 | 0.5 to 5 | > 4 | CC(C)[C@@H]1CC[C@@H](C)C[C@H]1Nc1c(Cl)cnc2[nH]ccc12 [compound 151] |
| – | – | – | < 0.5 | < 0.5 | < 0.5 | Clc1cnc2[nH]ccc2c1N[C@@H]1CCC[C@H]1OCc1ccccc1 [compound 152] |
| – | – | – | < 0.5 | < 0.5 | 0.5 to 5 | CC1CCCCC1Nc1c(Cl)cnc2[nH]ccc12 (stereo not drawn) [compound 153] |
| – | – | – | < 0.5 | < 0.5 | > 4 | COc1ccc(OC)c(Nc2c(Cl)cnc3[nH]ccc23)c1 [compound 154] |
| – | – | – | < 0.5 | < 0.5 | > 4 | CCC(=O)Nc1cccc(Nc2c(Cl)cnc3[nH]ccc23)c1 [compound 155] |
| – | – | – | < 0.5 | < 0.5 | > 4 | Clc1cnc2[nH]ccc2c1Nc1cccc(-c2cnco2)c1 [compound 156] |
| – | – | – | < 0.5 | < 0.5 | < 0.5 | Clc1cnc2[nH]ccc2c1NC1CCCN(Cc2ccccc2)C1 (stereo not drawn) [compound 157] |
| – | – | – | < 0.5 | < 0.5 | 0.5 to 5 | Clc1ccccc1Nc1c(Cl)cnc2[nH]ccc12 [compound 158] |
| – | – | – | < 0.5 | < 0.5 | > 4 | N#Cc1ccc(Cl)cc1Nc1c(Cl)cnc2[nH]ccc12 [compound 159] |
| – | – | – | 0.5 to 5 | 0.5 to 5 | > 4 | Cc1ccc(C(N)=O)cc1Nc1c(Cl)cnc2[nH]ccc12 [compound 160] |
| – | – | – | < 0.5 | < 0.5 | < 0.5 | CC1CCCC(Nc2c(Cl)cnc3[nH]ccc23)C1 (stereo not drawn) [compound 161] |
| – | – | – | < 0.5 | < 0.5 | 0.5 to 5 | CC1CC(Nc2c(Cl)cnc3[nH]ccc23)CC(C)(C)C1 (stereo not drawn) [compound 162] |
| – | – | – | < 0.5 | < 0.5 | > 4 | N#Cc1ccc(Nc2c(Cl)cnc3[nH]ccc23)c(Cl)c1 [compound 163] |
| – | – | – | < 0.5 | < 0.5 | > 4 | CC(C)(C)OC(=O)N1CCC[C@@H](Nc2c(Cl)cnc3[nH]ccc23)C1 [compound 164] |
| – | – | – | < 0.5 | < 0.5 | > 4 | C#CCOC(=O)N1CC[C@H](Nc2c(Cl)cnc3[nH]ccc23)C1 [compound 165] |
| – | – | – | < 0.5 | 0.5 to 5 | > 4 | COC(=O)N1CC[C@H](Nc2c(Cl)cnc3[nH]ccc23)C1 [compound 166] |
| – | – | – | < 0.5 | < 0.5 | > 4 | CCCOC(=O)N1CC[C@H](Nc2c(Cl)cnc3[nH]ccc23)C1 [compound 167] |
| – | – | – | < 0.5 | 0.5 to 5 | > 4 | CCC(=O)N1CC[C@H](Nc2c(Cl)cnc3[nH]ccc23)C1 [compound 168] |
| – | – | – | < 0.5 | < 0.5 | 0.5 to 5 | C#CCOC(=O)N1CC[C@@H](Nc2c(Cl)cnc3[nH]ccc23)C1 [compound 169] |
| – | – | – | < 0.5 | < 0.5 | 0.5 to 5 | COC(=O)N1CC[C@@H](Nc2c(Cl)cnc3[nH]ccc23)C1 [compound 170] |
| – | – | – | < 0.5 | < 0.5 | 0.5 to 5 | CCCOC(=O)N1CC[C@@H](Nc2c(Cl)cnc3[nH]ccc23)C1 [compound 171] |
| – | – | – | < 0.5 | < 0.5 | 0.5 to 5 | C#CCOC(=O)N1CCCC(Nc2c(Cl)cnc3[nH]ccc23)C1 (stereo not drawn) [compound 172] |
| – | – | – | < 0.5 | < 0.5 | 0.5 to 5 | COC(=O)N1CCCC(Nc2c(Cl)cnc3[nH]ccc23)C1 (stereo not drawn) [compound 173] |
